What was measured:
[1] = system: IRF3 activation in PD-L1 low HEK293T STING reporter cell line; test: IRF3 activation in HEK293T STING reporter cells, low PD-L1; format: cell-based, human; settings: 20 hours, read-out: IRF Activation EC50 (nM), Low PD-L1
Procedure: (§1) HEK293T STING reporter cell line was purchased from Invivogen and expressed low level of PD-L1. This cell line was then engineered at Incyte Research Institute to overexpress human PD-L1. Both PD-L1 high and PD-L1 low HEK293T cell lines were plated at 100,000 cells/100 μL/well in 10% fetal calf serum-containing DMEM culture medium in a 96-well flat bottom plate. Serial dilutions of PD-L1 small molecule-conjugated STING agonists were then added to the corresponding wells, and incubated for 20 hours at 37° C. In a competition study setting, 1 μM of a PD-L1 small molecule was added in the corresponding wells to compete with the binding of PD-L1 small molecule-conjugated STING agonists. At the end of the incubation, the culture supernatants were carefully removed from each well, and the amount of IRF3 activation was determined by adding Quanti-Blue substrate in accordance with the manufacturer's protocol.
(§2) 293T-Dual hSTING-R232 (ISG/KI-IFNb) cells that were generated from 293T-Dual Null (ISG/KI-IFNb) cells by stable transfection of the R232 isoform of human STING were purchased from Invivogen (Invivogen #293d-r232).
(§3) This cell line expresses an ISRE-inducible SEAP (secreted embryonic alkaline phosphatase) reporter construct, which monitors the activation of interferon regulatory factor (IRF) and its binding to ISRE (IFN-stimulated response elements). These reporter cells express low level of PD-L1. Human PD-L1 was then overexpressed in these cells through stable transfection.
(§4) These 293T-Dual hSTING-R232 reporter cells as well as293T-Dual hSTING-R232 reporter cells overexpressing huPD-L1 were treated with various concentrations of STING compounds for 20 hours. After 20 hours, interferon regulatory factor (IRF) activity was assessed by measuring SEAP levels in the supernatant using QUNTI-Blue. EC50 values were generated by curve fit in Prism software.

[2] = biological target: T1, PD-L1 (Homo sapiens (Human), UniProt Q9NZQ7); test: PD-L1 surface levels on HEK293T STING reporter cells, high PD-L1; format: cell-based
Procedure: To determine PD-L1 expression on HEK cells after treatment of PD-L1-small molecule conjugated STING agonists, cells were harvested at 20 hours post-treatment. Single cell suspensions were then stained with phycoerythrin-conjugated anti-PD-L1 antibody (BD Bioscience), and the PD-L1 expression were then analyzed by flow cytometry. Mean fluorescence intensity was used as the relative level of surface PD-L1 expression on cells (FIG. 1 and Table 6).
Also, cells were stained with PE-conjugated anti-human PD-L1 antibody to determine surface PD-L1 expression. Cell acquisition was performed on BD LSRFortessa X-20 (BD Biosciences). Data was analyzed using FlowJo software. IC50 values were calculated using Prism Software.

[3] = system: IRF3 activation in PD-L1 high HEK293T STING reporter cell line; test: IRF3 activation in HEK293T STING reporter cells, high PD-L1; format: cell-based, human; settings: high PD-L1 cells, 20 hours; read-out: IRF Activation EC50 (nM), High PD-L1
Procedure: as §1, §2, §3, §4

[4] = biological target: T1, PD-L1; test: Indirect whole blood PD-L1 internalization assay; format: cell-based; settings: interferon γ, 18 hours, CD14+ gated
Procedure: To determine PD-L1 internalization in human whole blood, normal human blood (Biological Specialty Corp, Colmar. Pa.) was incubated in the presence or absence of a concentration range of test compounds and 1 ng/ml human interferon γ (R&D Systems Inc. Minn. Minn.) in a 96 well round bottom plate (Corning, Corning, N.Y.) for 18 hours at 37° C. Blood was then transferred into 96 well “2 ml Assay Block” (Corning, Corning N.Y.) and stained with PD-L1 (MIH1, eBioscience; or BD Biosciences San Jose, Calif.), CD14 (Life Technologies, Carlsbad, Calif.) for 30 minutes in the dark at room temperature. Whole Blood/red cells were lysed/fixed (lysis buffer BD Biosciences) for 5 minutes at 37° C. in dark and then centrifuged at 1600 RPM for 5 minutes and cells were transferred into 96 well round bottom plates (Corning). Cells were gated on CD14+ (BD Biosciences) and PD-L1 expression determined by mean fluorescence intensity (MFI) (BD LSRFortessa™ X-20). IC50 determination was performed by fitting the curve of compound percent inhibition versus the log of the compound concentration using the GraphPad Prism 7.0 software.

[5] = biological target: T1, PD-L1; test: Indirect PD-L1 internalization assay using MDA-MB231 cells; format: cell-based; settings: 16 hrs
Procedure: For the indirect analysis, cell surface PD-L1 was detected with fluorescently labeled anti-PD-L1 (CD274) antibodies. CHO-PD-L1 cells were seeded at 2×10^5 cells per well of a 6-well tissue culture plate in 2 ml of F-12 medium supplemented with 10% FBS, 200 μg/ml Hydromycin and 250 μg/ml Geneticin and allowed to attach for 24 hours. After 24 hours, test compounds were added to a final concentration of 1 uM from DMSO stocks, and an equal volume of DMSO was added to control wells. Cells were incubated in the presence of a compound for 16 hours at 37° C., 5% CO2. Prior to analysis, the cells were washed twice with 1 mL of Ca, Mg free PBS and detached with 1 mL of lift buffer (10 mM Tris, 140 mM NaCl, 1 mM EDTA). The collected cells were stained with PE-conjugated mouse anti-human CD274 antibody according to manufacturer instructions: BD Pharmigen #557924 Clone MIH1 (20 μL of Ab per 100 uL of BSA based staining buffer) or eBioscience #12-5983 Clone MIH1 (2 μL per 100 ul of BSA based staining buffer). Cells were incubated at room temperature for 20 minutes, protected from light, washed twice with Ca, Mg free PBS and resuspended in 400 μL of PBS. Antibody binding was detected by flow cytometry using an Accuri C6 instrument. Isotype control antibody-stained cells were used as a negative control. To test that lack of PD-L1 cell surface staining was not due to inhibition of detection antibody binding by the test article, an acid-wash procedure was used. After 16 hours of incubation in the presence of a compound or anti-PD-L1 antibody, the remaining, non-internalized a compound or antibody was stripped from the cell surface using freshly prepared, ice-cold acid stripping buffer (DMEM/0.2% BSA, pH 3.5). Cells were washed in this manner three times for 5 minutes each on a shaking platform. The stripped cells were then washed with ice-cold PBS three times for 5 minutes each with gentle shaking, harvested with lift buffer and stained with PE-mouse anti human CD274 antibodies as described.
For the indirect method of assessing PD-L1 internalization using the MDA-MB231 breast cancer cell line, the procedure for the assays was the same as described for the CHO-PD-L1 cells with the following changes. MDA-MB231 were seeded at 2×10^5 cells per well of a 6-well tissue culture plate in 2 ml of RPMI1640 medium supplemented with 10% FBS. After compound treatment for 16 hrs, the cells were treated with the stripping buffer (DMEM/0.2% BSA, pH 3.5) prior to staining with the anti-CD274 antibodies as described.

[6] = biological target: PD-1/PD-L1 (Homo sapiens (Human), UniProt Q9NZQ7); test: PD-1/PD-L1 binding assay (Alphascreen)
Procedure: Binding assays were conducted in a low volume white 384-well polystyrene plate in a final volume of 20 μL. Compounds to be analyzed were first serially diluted in DMSO and added to the plate wells before the addition of other reaction components. The final concentration of DMSO in the assay was 1%. The assay was carried out at 25° C. in the PBS buffer (pH 7.4) with 0.05% Tween-20 and 0.1% BSA. Recombinant human PD-L1 protein (19-238) with a His-tag at the C-terminus was purchased from AcroBiosystems (PD1-H5229). Recombinant human PD-1 protein (25-167) with Fc tag at the C-terminus was also from AcroBiosystems (PD1-H5257). PD-L1 and PD-1 proteins were diluted in the assay buffer (final concentration—0.67 and 0.20 nM respectively) and 10 μL was added to the plate well. Plates were centrifuged and proteins were preincubated with compounds for 40 minutes. The incubation was followed by the addition of 10 μL of assay buffer supplemented with Alphascreen Ni chelate donor beads (PerkinElmer—AS101D) and Protein A Acceptor beads (PerkinElmer—6760137) at final concentration 2.5 μg/mL under reduced light. After plate sealing, the plate was incubated in the dark at room temperature for 120 minutes before reading on a PHERAstar FS plate reader (BMG Labtech). IC50 determination was performed by fitting the curve of percent control activity versus the log of the compound concentration using the GraphPad Prism 5.0 software.

T1 sequence (Q9NZQ7 19-290): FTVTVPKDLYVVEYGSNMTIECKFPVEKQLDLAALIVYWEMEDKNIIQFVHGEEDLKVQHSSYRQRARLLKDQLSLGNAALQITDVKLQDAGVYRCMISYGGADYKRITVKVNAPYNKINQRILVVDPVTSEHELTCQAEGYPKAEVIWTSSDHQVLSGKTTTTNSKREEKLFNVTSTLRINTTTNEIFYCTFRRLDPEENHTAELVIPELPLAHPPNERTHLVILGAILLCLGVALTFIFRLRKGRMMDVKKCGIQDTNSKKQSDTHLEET
Chain of PD-1/PD-L1 (Q9NZQ7 19-238): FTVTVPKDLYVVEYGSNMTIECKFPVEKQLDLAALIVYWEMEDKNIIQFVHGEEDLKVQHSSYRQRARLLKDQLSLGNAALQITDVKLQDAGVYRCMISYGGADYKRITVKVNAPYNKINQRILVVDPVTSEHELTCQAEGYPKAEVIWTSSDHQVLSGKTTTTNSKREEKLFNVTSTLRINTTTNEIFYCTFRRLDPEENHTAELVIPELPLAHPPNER

In the case of CCn1nc(C)cc1C(=O)Nc1nc2cc(C(N)=O)cc(OC)c2n1C/C=C/Cn1c(NC(=O)c2cc(C)nn2CC)nc2cc(C(N)=O)cc(OCCCNC(=O)[C@H](CCC(=O)O)NC(=O)[C@H](CCC(=O)O)NC(=O)[C@H](CCCNC(=N)N)NC(=O)[C@H](CCC(=O)O)NC(=O)CCCN3CCc4c(nc(C(=O)Nc5cccc(-c6cccc(NC(=O)c7nc8c(n7C)CCN(CCCC(=O)O)C8)c6Cl)c5Cl)n4C)C3)c21 [Example 19], the EC50 [1] is reported as 50 to 200 nM, the IC50 [2] is reported as < 50 nM and the EC50 [3] is reported as < 50 nM.

CCn1nc(C)cc1C(=O)Nc1nc2cc(C(N)=O)cc(OC)c2n1C/C=C/Cn1c(NC(=O)c2cc(C)nn2CC)nc2cc(C(N)=O)cc(OCCCNC(=O)[C@@H](NC(=O)[C@H](CC(=O)O)NC(=O)[C@H](CC(=O)O)NC(=O)[C@H](CCCNC(=N)N)NC(=O)[C@H](CC(=O)O)NC(=O)CCCN3CCc4c(nc(C(=O)Nc5cccc(-c6cccc(NC(=O)c7nc8c(n7C)CCN(CCCC(=O)O)C8)c6Cl)c5Cl)n4C)C3)C(C)(C)C)c21 [Example 20] was tested, and the EC50 [1] was 50 to 200 nM, the IC50 [2] was < 50 nM and the EC50 [3] was < 50 nM.

For CCn1nc(C)cc1C(=O)Nc1nc2cc(C(N)=O)cc(OCCCNC(=O)[C@H](CC(=O)O)NC(=O)[C@H](CC(=O)O)NC(=O)[C@H](CCCNC(N)=O)NC(=O)[C@H](CC(=O)O)NC(=O)CCCN3CCc4c(nc(C(=O)Nc5cccc(-c6cccc(NC(=O)c7nc8c(n7C)CCN(CCCC(=O)O)C8)c6Cl)c5Cl)n4C)C3)c2n1C/C=C/Cn1c2nc(-c3cc(C)nn3CC)ncc2c2cc(C(N)=O)cc(OC)c21 [Example 21], the EC50 [1] was 50 to 200 nM, the IC50 [2] was < 50 nM and the EC50 [3] was < 50 nM.

CCn1nc(C)cc1C(=O)Nc1nc2cc(C(N)=O)cc(OCCCNC(=O)[C@H](CC(=O)O)NC(=O)[C@H](CC(=O)O)NC(=O)[C@H](CCCNC(=N)N)NC(=O)[C@H](CC(=O)O)NC(=O)[C@H](CC(=O)O)NC(=O)[C@H](CC(=O)O)NC(=O)[C@H](CCCNC(=N)N)NC(=O)[C@H](CC(=O)O)NC(=O)CCCN3CCc4c(nc(C(=O)Nc5cccc(-c6cccc(NC(=O)c7nc8c(n7C)CCN(CCCC(=O)O)C8)c6Cl)c5Cl)n4C)C3)c2n1C/C=C/Cn1c2nc(-c3cc(C)nn3CC)ncc2c2cc(C(N)=O)cc(OC)c21 [Example 22] was tested, and the EC50 [1] was < 50 nM, the IC50 [2] was < 50 nM and the EC50 [3] was < 50 nM.

CCn1nc(C)cc1C(=O)Nc1nc2cc(C(N)=O)cc(OCCCNC(=O)[C@H](CC(=O)O)NC(=O)[C@H](CC(=O)O)NC(=O)[C@H](CCCNC(=N)N)NC(=O)[C@H](CC(=O)O)NC(=O)CCCN3CCc4c(nc(C(=O)Nc5cccc(-c6cccc(NC(=O)c7nc8c(n7C)CCN(CCCC(=O)O)C8)c6Cl)c5Cl)n4C)C3)c2n1C/C=C/Cn1c2nc(-c3cc(C)nn3CC)ncc2c2cc(C(N)=O)cc(OCCCOC)c21 [Example 23] was tested, and the EC50 [1] was 50 to 200 nM, the IC50 [2] was < 50 nM and the EC50 [3] was < 50 nM.

For CCn1nc(C)cc1C(=O)Nc1nc2cc(C(N)=O)cc(OCCCNC(=O)OCCNC(=O)[C@H](CC(=O)O)NC(=O)[C@H](CC(=O)O)NC(=O)[C@H](CCCNC(=N)N)NC(=O)[C@H](CC(=O)O)NC(=O)CCCN3CCc4c(nc(C(=O)Nc5cccc(-c6cccc(NC(=O)c7nc8c(n7C)CCN(CCCC(=O)O)C8)c6Cl)c5Cl)n4C)C3)c2n1C/C=C/Cn1c2nc(-c3cc(C)nn3CC)ncc2c2cc(C(N)=O)cc(OC)c21 [Example 24], the EC50 [1] was < 50 nM, the IC50 [2] was < 50 nM and the EC50 [3] was < 50 nM.

Cc1c(NC(=O)c2nc3c(n2C)CCN(C[C@H](C)O)C3)cccc1-c1cccc(NC(=O)c2nc3c(n2C)CCN(C)C3)c1Cl [Example P8] was tested, and the IC50 [4] was < 100 nM, the IC50 [5] was < 10 nM and the IC50 [6] was 0.1 to 1 nM.

Cc1c(NC(=O)c2nc3c(n2C)CCN(C2CCOCC2)C3)cccc1-c1cccc(NC(=O)c2nc3c(n2C)CCN(C)C3)c1Cl [Example P9] was tested, and the IC50 [4] was < 100 nM and the IC50 [6] was 0.1 to 1 nM.

Cc1c(Nc2nccc3cc(CN4CC[C@@H](O)C4)cnc23)cccc1-c1cccc(-c2nc3cc(CN4CC[C@@H](C(=O)O)C4)cc(C#N)c3o2)c1C [Example P15] gave an IC50 [4] of 100 to 1000 nM and an IC50 [6] of 0.1 to 1 nM.

With Cc1c(Nc2nccc3cc(CN4CC[C@@H](O)C4)cnc23)cccc1-c1cccc(Nc2nccc3cc(CN4CC[C@@H](C(=O)O)C4)cnc23)c1C [Example P18] the IC50 [4] was 100 to 1000 nM and the IC50 [6] was 0.1 to 1 nM.

For Cc1c(Nc2nccc3cc(CN4CC[C@@H](O)C4)cnc23)cccc1-c1cccc(-c2nc3cc(CN4CC(C(=O)O)C4)cc(C#N)c3o2)c1C [Example P20], the IC50 [4] was 100 to 1000 nM and the IC50 [6] was 0.1 to 1 nM.

For Cc1c(-c2nc3cc(CN4CC[C@@H](C(=O)O)C4)cc(C#N)c3o2)cccc1-c1cccc(NC(=O)c2nc3c(n2C)CCN(C)C3)c1Cl [Example P22], the IC50 [4] was < 100 nM and the IC50 [6] was 0.1 to 1 nM.
